Assay results from patent publication US20080139596A1, “Modulators of Hcv Replication” (priority 2004, published 2008).

Legend:
[1] = tested on: wt Con1 replicon; format: cell-based; settings: 8 μM; 4 days of incubation; wt Con1 replicon in 10A-IFN cells
[2] = tested on: Con1 replicon carrying the adaptive mutation A2199T (AT); format: cell-based, Hepatitis C virus; settings: AT replicon (high amounts of hyperphosphorylated NS5A); 10A-IFN cells; 4 days; Cell-ELISA; read-out: IC50, inhibition of HCV replication
[3] = tested on: Con1 replicon carrying the adaptive mutation S2204I (SI); format: cell-based, Hepatitis C virus; settings: SI replicon (low amounts of hyperphosphorylated NS5A); 10A-IFN cells; 4 days; Cell-ELISA; read-out: IC50, inhibition of HCV replication
[4] = tested on: wt Con1 replicon; assay: HCV-specific RNA by real-time reverse transcription PCR (TaqMan) in 10A-IFN cells; format: cell-based, Hepatitis C virus; settings: 8 μM; 4 days; wt Con1 replicon in 10A-IFN cells; quantitative PCR
Protocol: (§1) RNA was transcribed from the plasmids wt, wt-GAA, m17, SA, m17/SA and m17-GAA and electroporated into 10A-IFN cells. Cells were incubated for four days without or with 8 μM of Compound (1), Compound (2) or SB203580.
(§2) (A) HCV-specific RNA analysis using quantitative RT-PCR. Total cellular RNA was extracted and HCV-specific RNA was quantified as described in Materials and Methods. On the Y-axis is shown the fold-induction with respect to the DMSO control (black bar), Compound (1) (dark grey bar), Compound (2) (light grey bar) or SB203580 (dotted bar). Replicon RNA is indicated at the bottom of the figure.
(§3) Replicon RNA was extracted from selected clones either using the Qiagen RNAeasy minikit following manufacturer instructions or as described by Chomczynski et al., 1987. Anal. Biochem. 162, 156-159. TaqMan analysis was typically performed using 10 ng of RNA in a reaction mix (TaqMan Gold RT-PCR kit, Perkin Elmer Biosystems) either with HCV specific oligos/probe (as disclosed in published International application WO02/059321) or with human beta-actin specific oligos/probe (Pre-Developed TaqMan Assay Reagents, Endogenous Control Human beta-actin, Part Number 4310881E, Applied Biosystems). PCR was performed using a Perkin Elmer ABI PRISM 7700 under the following conditions: 30 minutes at 48° C. (the RT step), 10 minutes at 95° C. and 40 cycles: 15 seconds at 95° C. and 1 minute at 60° C. Quantitative calculations were obtained using the Comparative CT Method (described in User Bulletin #2, ABI PRISM 7700 Sequence Detection System, Applied Biosystem, December 1997) considering the level of GAPDH mRNA constant. All calculations of HCV RNA are expressed as fold difference over a specific control.
(§4) A similar experiment was carried out in order to detect HCV-specific RNA using real-time reverse transcription PCR amplification (FIG. 2A). […] Compound (1) induced replication of wt Con1 replicon 6-fold as measured by quantitative PCR, whereas induction of replication by the other compounds was below background (wt). […]

[5] = tested on: subgenomic replicons with the synergistic mutation in NS3 (m17); assay: as above; format: cell-based, Hepatitis C virus; settings: 8 μM; 4 days; m17 replicon in 10A-IFN cells; quantitative PCR
Protocol: as §1, §2, §3, §4

[6] = tested on: hyperphosphorylated NS5A (p58) in HB68 cells; assay: NS5A hyperphosphorylation assay (radiolabelling, immunoprecipitation, SDS-PAGE); format: cell-based, Hepatitis C virus; settings: 5 μM; for formation of the hyperphosphorylated form of NS5A (p58) / NS5A phosphorylation: 35S-methionine or 32P-orthophosphate labelling
Protocol: The presence of hyperphosphorylated NS5A (p58) was evaluated in Huh7-HB68 cells. Proteins were labeled either with ^35S-methionine (lanes 2-5) or with ^32P-orthophosphate (lanes 7-10) in the presence of DMSO (lanes 2 and 7) or with 5 μM of Compound (1) (lanes 3 and 8), Compound (2) (lanes 4 and 9) or SB203580 (lanes 5 and 10). After the radiolabelling, protein extract was prepared, NS5A was immunoprecipitated and proteins were loaded on a 7.5% SDS-PAGE and autoradiographed. The sizes of molecular weight marker proteins are indicated in lanes 1 and 6.
Inhibition of NS5A hyperphosphorylation in intact cells was measured by determining the amount of hyperphosphorylated NS5A (p58) in cells expressing HCV NS5A in the context of a polyprotein comprising at least NS3, NS4A, NS4B, and NS5A (Neddermann et al., J Virol 73, 9984-9991, 1999). […] HBI10 and HB68 are Huh-7 derived-cell lines described in WO2002/059321.
Hyperphosphorylated NS5A was detected as a protein that i) migrates with an apparent molecular weight of about 58 kDa in SDS PAGE, and ii) is immunoreactive with anti-NS5A antibodies. Thus, the amount of hyperphosphorylated NS5A was detected by immunoprecipitation of radioactively labeled proteins.
HBI10 or HB68 were cultured in Dulbecco's modified Eagle medium (DMEM) supplemented with 10% fetal bovine serum (FBS) in the presence of 0.8 mg/ml of G418 (Geneticin; Gibco/BRL). For starvation prior to radioactive protein labeling, minimal essential medium without methionine (Gibco/BRL) was used. For protein labeling, 100 μCi/ml of ^35S-labelled methionine (Promix, Amersham, Cat. No. SJQ0079, 1000 Ci/mmole) was added to the cells.
• 1. HBI10 or HB68 cells were grown to 80% confluency in 6-well plates. • 2. Compound to be tested, dissolved in DMSO at 100× concentration, was added to each well. • 3. One hour later, the medium was removed and replaced with Minimal Essential Medium without methionine. This step is omitted in the case of 32P-orthophosphate labeling. • 4. Compound to be tested, dissolved in DMSO at 100× concentration, was freshly added to each well. • 5. One hour later 100 μCi of ^35S-labelled methionine per ml of Minimal Essential Medium without methionine was added to each well for 35S-metabolic labeling together with the compound to be tested, dissolved in DMSO at 100× concentration. In the case of 32P-labelling, cells were washed once with Dulbecco's modified Eagle's medium without phosphate (ICN) and labeled for 4 hours in the same medium containing 500 μCi/ml of [32P]-orthophosphate (285.5 Ci/mg, NEN) together with the compound to be tested, dissolved in DMSO at 100× concentration. • 6. After 4 hours, cells were harvested from each well and individual cell extracts were prepared in 100 μl of cell lysis buffer. • 7. […]

[7] = tested on: replicon m17 (E1202G in NS3); format: cell-based; settings: 8 μM; 4 days of incubation; replicon m17 in 10A-IFN cells
[8] = tested on: wild type Con1 replicon; assay: Beta-lactamase gene reporter assay (BLA-assay), replicon electroporated in 10A-IFN cells; format: cell-based, Hepatitis C virus; settings: 8 μM, added two hours after electroporation, 4 days of incubation
Protocol: The BLA-assay was performed after 4 days of incubation in the presence of the compounds to be tested according to Murray et al., J Virol 77, 2928-35, 2003. Briefly, medium was removed, and cells were stained for 90 min with CCF4-AM (Aurora Biosciences Corp.) in Dulbecco's modified Eagle's medium supplemented with 25 mM HEPES, pH 8.0. For quantitation of the fraction of cells harboring bla replicons, cells were photographed by using a digital charge-coupled device color camera and green and blue cells were counted. Another method for measuring beta-lactamase activity is using a fluorescence plate reader that quantitates the amount of green (530 nm) or blue (460 nm) fluorescence emitted by cells stimulated with light of 405 nm.
A subgenomic replicon was used in which the original neomycin phosphotransferase (neo) gene was replaced by the β-lactamase (bla) gene (WO2003089672 A1 and Murray et al., J Virol 77, 2928-2935, 2003). Cells actively replicating HCV express β-lactamase and show a fluorescent blue staining after incubation with a diffusible β-lactamase substrate (BLA-assay). Replicon RNA was electroporated in 10A-IFN cells and compounds were added at a concentration of 8 μM two hours after electroporation. The BLA-assay was performed after 4 days of incubation in the presence of the compounds to be tested according to Murray et al., J Virol 77, 2928-35, 2003. Briefly, medium was removed, and cells were stained for 90 min with CCF4-AM (Aurora Biosciences Corp.) in Dulbecco's modified Eagle's medium supplemented with 25 mM HEPES, pH 8.0. For quantitation of the fraction of cells harboring bla replicons, cells were photographed by using a digital charge-coupled device color camera and green and blue fluorescent cells were counted. Alternatively, fluorescence was measured by using a CytoFluor 4000 fluorescence plate reader.
The control compound SB203580 had no effect on HCV replication.

| SMILES | presence of NS5A by immunoblot [1] | IC50 [2] [nM] | IC50 [3] [nM] | fold-induction of HCV-RNA with respect to the DMSO control [4] [fold] | fold-induction of HCV-RNA with respect to the DMSO control [5] [fold] | formation of the hyperphosphorylated form of NS5A (p58) / NS5A phosphorylation [6] | activation of replication (NS5A by immunoblot) [7] | HCV replication (fluorescent blue cells, BLA-assay) [8] | NS5A expression [6] |
| --- | --- | --- | --- | --- | --- | --- | --- | --- | --- |
| CNc1nccc(-c2[nH]c(C3CCNCC3)nc2-c2cccc(C(F)(F)F)c2)n1 [Compound (1), N-methyl-4-{2-piperidin-4-yl-4-[3-(trifluoromethyl)phenyl]-1H-imidazol-5-yl}pyrimid-2-amine] | NS5A could be detected | 5000 | 500 | 6 | 312 | inhibited the formation of the hyperphosphorylated form of NS5A | more potent | resulted in the production of fluorescent blue cells |  |
| CN1CCC(c2nc(-c3ccncc3)c(-c3ccc(F)cc3)[nH]2)CC1 [Compound (2), 4-[5-(4-fluorophenyl)-2-(1-methylpiperidin-4-yl)-1H-imidazol-4-yl]pyridine] | no protein was visible | 5000 | 500 |  | 58 | inhibited the formation of the hyperphosphorylated form of NS5A | less potent activator | resulted in the production of fluorescent blue cells |  |
| C[S+]([O-])c1ccc(-c2nc(-c3ccncc3)c(-c3ccc(F)cc3)[nH]2)cc1 (stereo not shown) [SB203580, reference compound] | no NS5A was visible |  |  |  |  | no effect |  | no effect | no effect |
